Consider eleven compounds from patent US6043385A, “Vitamin D derivatives” (priority 1997, dated 2000).

One data set deals with T1, human VDR (Homo sapiens, UniProt P11473).
T1 construct: expressed in transfected cells; host or cells: COS cells, human VDR in pSG5
T1 sequence (P11473 1-427): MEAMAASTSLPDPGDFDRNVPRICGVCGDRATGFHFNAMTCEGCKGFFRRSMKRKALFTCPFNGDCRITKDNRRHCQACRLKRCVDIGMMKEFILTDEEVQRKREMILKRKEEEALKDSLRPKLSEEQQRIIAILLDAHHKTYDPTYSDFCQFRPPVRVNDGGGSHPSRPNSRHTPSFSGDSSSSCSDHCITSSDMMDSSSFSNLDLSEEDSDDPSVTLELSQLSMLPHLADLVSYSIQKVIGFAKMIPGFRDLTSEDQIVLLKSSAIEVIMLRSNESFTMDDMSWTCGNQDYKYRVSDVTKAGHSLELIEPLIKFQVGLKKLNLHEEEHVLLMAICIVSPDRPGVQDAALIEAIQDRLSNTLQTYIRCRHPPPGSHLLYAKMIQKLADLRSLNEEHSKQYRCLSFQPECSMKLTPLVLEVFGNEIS
The experiment in a line: Vitamin D receptor activation (VDR), transcription activation assay in COS cells. As to conditions: for EC50: COS cells cotransfected with human VDR and VDRE3-luciferase reporter, read-out: VDR act. (ED50, nanomolar); for HTD/VDR: ratio HTDsc (mouse, μg/kg) / VDR ED50 (nanomolar); for TI shift (HTD/VDR of test compound divided by HTD/VDR of calcitriol): vs calcitriol. The format is cell-based. An excerpt:
2. Vitamin D receptor activation (VDR)
In order to measure the activation of the vitamin D receptor (VDR) by vitamin D analogs in cells a transcription activation assay was used. COS cells were cotransfected with the human VDR (expressed in pSG5) and a reporter gene containing three response elements (VDRE3) from the rat osteocalcine gene, the thymidine kinase basal promoter, and the luciferase reporter gene, respectively.
TI shift: shift in "therapeutic index", defined as the ratio HTD/VDR of
the test compound divided by the ratio HTD/VDR of calcitriol. These
(In general: A reporter such as luciferase makes a cellular process visible.)

Data set [1] in a line: Calcium liability (tolerance test in mice). Conditions: mouse, in vivo, sc, daily s.c. for 4 consecutive days, dose without weight loss / with zero weight gain, read-out: HTD sc, mouse (highest tolerated subcutaneous dose). An excerpt:
1. Calcium liability (tolerance test in mice):
This test gives a global picture of calcemic liability. Profound changes in calcium homeostasis strongly affect the weight development of the animals. This parameter was used as a primary test for tolerance. Mice (25-30 g body weight) received daily subcutaneous administrations of the vitamin D derivative for 4 consecutive days. Body weight was registered just before and at the end of a […] treatment period. The "highest tolerated dose" (HTDsc) in mice is the dose which results in zero weight gain during this treatment period.
HTDsc: highest tolerated subcutaneous dose (μg/kg) without weight loss

For data set [2], the system named is Epidermal thickening (acanthosis) in hairless mice. In words: The mouse model: epidermal thickening (acanthosis) in hairless mice. As to conditions: for ED50: Mus musculus, po, read-out: ED50: dose causing halfmaximal epidermal thickening; for ratio (TI) HTD/ED50 / TI shift (HTD/ED50 of test compound divided by HTD/ED50 of calcitriol): hairless mice, oral; for ratio (TI) HTD/ED50: HTDpo/ED50; for TI shift (HTD/ED50 of test compound divided by HTD/ED50 of calcitriol): vs calcitriol.

Test in data set [3]: as above
Conditions: mouse, in vivo, po.

In data set [4] the test system is Epidermal proliferation in minipigs. The experiment in a line: The pig model: epidermal proliferation in minipigs. As to conditions: for TI (ratio Calc./Eff.): calcemic dose / effective dose, 10080 min; for Calcemic dose / Effective dose: seven days; for Effective dose: dose that increases the normal LI at least 50%.

Regarding `C=C1/C(=C\C=C2/CCC[C@]3(C)[C@@H]([C@H](C)CNC(=O)CC(C)(O)C(F)(F)F)CC[C@@H]23)C[C@@H](O)C[C@@H]1O` (mixture of isomers) [D, 1:1 Mixture of [(5Z,7E)--(R)-- and (S)--N--[(1S,3R,20S)-1,3-dihydroxy-20-methyl-9,10-seco-pregna-5,7,10(19)-trien-21-yl]-4,4,4-trifluoro-3-hydroxy-3-methyl-butyramide], at human VDR, the EC50 was found to be 1.6 nM, the HTD/VDR was determined as 6.3 and the “TI shift (HTD/VDR of test compound divided by HTD/VDR of calcitriol)” value turned out to be 33. In data set [1], the MTD was 10 µg/kg.
For `C=C1/C(=C/C=C2\CCC[C@]3(C)[C@@H]([C@H](C)CNC(=O)CC(C)(O)C(F)(F)F)CC[C@@H]23)C[C@@H](O)C[C@@H]1O` (mixture of isomers) [I, 1:1 Mixture of --[(5E,7E)--(R)-- and --(S)-4,4,4-trifluoro-3-hydroxy-N--[(1S,3R,20S)-1,3-dihydroxy-20-methyl-9,10-seco-pregna-5,7,10(19)-trien-21-yl]-3-methyl-butyramide] the same measures were 40 nM, 3.3, 17 and 130 µg/kg.
Broadly, the ED50 is the midpoint of the dose-response relation. As for `C[C@H](CNC(=O)CC(C)(O)C(F)(F)F)[C@H]1CC[C@H]2/C(=C/C=C3C[C@@H](O)C[C@H](O)C3)CCC[C@]12C` (mixture of isomers) [compound B, 1:1 Mixture of (E)--(R)-- and (S)--N--[(1R,3R,20S)-1,3-dihydroxy-20-methyl-19-nor-9,10-seco-pregna-5,7-dien-21-yl]-4,4,4-trifluoro-3-hydroxy-20-methyl-butyramide], in data set [2], the ED50 came to 80 µg/kg, the “ratio (TI) HTD/ED50” value is 0.25 and the “TI shift (HTD/ED50 of test compound divided by HTD/ED50 of calcitriol)” value stood at 125. The compound also yielded an MTD in data set [3] of 20 µg/kg. In addition, in data set [4], the “TI (ratio Calc./Eff.)” value is given as 10, the Calcemic dose is 5 µg/kg and the Effective dose came to 0.5 µg/kg. On human VDR, the EC50 was 1.7 nM, the HTD/VDR worked out at 26.5 and the “TI shift (HTD/VDR of test compound divided by HTD/VDR of calcitriol)” value is recorded as 139. The MTD in data set [1] was found to be 45 µg/kg.
Regarding `C[C@@H](CNC(=O)CC(C)(O)C(F)(F)F)[C@H]1CC[C@H]2/C(=C/C=C3C[C@@H](O)C[C@H](O)C3)CCC[C@]12C` (mixture of isomers) [compound E, 1:1 Mixture of (E)--(R)-- and (S)--N--[(1R,3R,20R)-1,3-dihydroxy-20-methyl-19-nor-9,10-seco-pregna-5,7-dien-21-yl]-4,4,4-trifluoro-3-hydroxy-3-methyl-butyramide], on human VDR, the EC50 stood at 0.35 nM, the HTD/VDR came to 2.9 and the “TI shift (HTD/VDR of test compound divided by HTD/VDR of calcitriol)” value is on record as 15. In addition, the MTD in data set [1] stood at 1 µg/kg.
As for `C[C@H](CNC(=O)CC(O)(C(F)(F)F)C(F)(F)F)[C@H]1CC[C@H]2/C(=C/C=C3C[C@@H](O)C[C@H](O)C3)CCC[C@]12C` [A, (E)--(1R,3R,20S)--N-(1,3-Dihydroxy-20-methyl-19-nor-9,10-seco-pregna-5,7-dien-21-yl)-4,4,4-trifluoro-3-hydroxy-3-trifluoromethyl-butyramide], on human VDR, the EC50 is 0.47 nM, the HTD/VDR was found to be 6.4 and the “TI shift (HTD/VDR of test compound divided by HTD/VDR of calcitriol)” value turned out to be 34. For the same compound, the MTD in data set [1] came to 3 µg/kg.
`C[C@H](CNC(=O)C(C)(C)O)[C@H]1CC[C@H]2/C(=C/C=C3C[C@@H](O)C[C@H](O)C3)CCC[C@]12C` [C, (E)--(1R,3R,20S)--N-(1,3-Dihydroxy-20-methyl-19-nor-9,10-seco-pregna-5,7-dien-21-yl)-2-hydroxy-2-methyl-propionamide]: on human VDR, the EC50 is 6.4 nM, the HTD/VDR was found to be 62.5 and the “TI shift (HTD/VDR of test compound divided by HTD/VDR of calcitriol)” value worked out at 329. For the same compound, in data set [1], the MTD is 400 µg/kg.
`C=C1/C(=C\C=C2/CCC[C@]3(C)[C@@H]([C@H](C)CCCC(C)(C)O)CC[C@@H]23)C[C@@H](O)C[C@@H]1O` [Calcitriol, reference compound]: in data set [2], the ED50 worked out at 500 µg/kg. The compound further displayed an MTD in data set [3] of 1 µg/kg. Also, in data set [4], the Calcemic dose was 3 µg/kg and the Effective dose was above 22.5 µg/kg. Also, the “hyperproliferation (in words)” value in data set [4] (up to 9 times the dose that induces hypercalcemia) was “did not induce hyperproliferation even at highly toxic does (9 times the dose that induces hypercalcemia)”.
Consider `C[C@H](CNC(=O)C[C@@](C)(O)C(F)(F)F)[C@H]1CCC[C@H]2/C(=C/C=C3C[C@@H](O)C[C@H](O)C3)CCC[C@]12C` [F, (E)--(R)--N--[(1R,3R,20S)-1,3-Dihydroxy-17a,20a-dihomo-19-nor-9,10-seco-pregna-5,7-dien-21-yl]-4,4,4-trifluoro-3-hydroxy-3-methyl-butyramide], for which, at human VDR, the EC50 is 0.6 nM, the HTD/VDR was found to be 8.3 and the “TI shift (HTD/VDR of test compound divided by HTD/VDR of calcitriol)” value is given as 44. Also, the MTD in data set [1] worked out at 5 µg/kg.
Turning to `C[C@H](CNC(=O)C[C@](C)(O)C(F)(F)F)[C@H]1CCC[C@H]2/C(=C/C=C3C[C@@H](O)C[C@H](O)C3)CCC[C@]12C` [G, (E)--(S)--N--[(1R,3R,20S)-1,3-Dihydroxy-17a,20a-dihomo-19-nor-9,10-seco-pregna-5,7-dien-21-yl]-4,4,4-trifluoro-3-hydroxy-3-methyl-butyramide], at human VDR, the EC50 was found to be 0.18 nM, the HTD/VDR is listed as 25 and the “TI shift (HTD/VDR of test compound divided by HTD/VDR of calcitriol)” value came to 132. Moreover, the MTD in data set [1] turned out to be 4.5 µg/kg.
For `C[C@H](CNC(=O)CC(O)(C(F)(F)F)C(F)(F)F)[C@H]1CCC[C@H]2/C(=C/C=C3C[C@@H](O)C[C@H](O)C3)CCC[C@]12C` [H, (E)--N--[(1R,3R,20S)-1,3-Dihydroxy-17a,20a-dihomo-19-nor-9,10-seco-pregna-5,7-dien-21-yl]-4,4,4-trifluoro-3-trifluoromethyl-3-hydroxy-butyramide] the same measures were 0.5 nM, 4.6, 24 and 2.3 µg/kg.
Turning to `C[C@H](CNC(=O)C[C@@](C)(O)C(F)(F)F)[C@H]1CC[C@H]2/C(=C/C=C3C[C@@H](O)C[C@H](O)C3)CCC[C@]12C` [compound J, E--(R)--N--[(1R,3R,20S)-1,3-Dihydroxy-20-methyl-19-nor-9,10-seco-pregna-5,7-dien-21-yl]-4,4,4-trifluoro-3-hydroxy-3-methyl-butyramide], in data set [2], the ED50 amounted to 50 µg/kg, the “ratio (TI) HTD/ED50” value turned out to be 0.16 and the “TI shift (HTD/ED50 of test compound divided by HTD/ED50 of calcitriol)” value amounted to 80. The MTD in data set [3] worked out at 8 µg/kg. In data set [4], the “TI (ratio Calc./Eff.)” value was 29, the Calcemic dose was 5 µg/kg and the Effective dose was determined as 0.17 µg/kg. Further, on human VDR, the EC50 was found to be 2.1 nM, the HTD/VDR was found to be 10.5 and the “TI shift (HTD/VDR of test compound divided by HTD/VDR of calcitriol)” value turned out to be 55. Further, the MTD in data set [1] turned out to be 22 µg/kg.
